Here are results for five compounds from publication PMC9541272, “Carba Analogues of Flupirtine and Retigabine with Improved Oxidation Resistance and Reduced Risk of Quinoid Metabolite Formation” (Chemmedchem, 2022).

The target in one data set is KV7.2/3 channel (Homo sapiens, UniProt O43525+O43526). The data set is described as follows: KV7.2/3 channel opening activity, thallium-flux FLIPR Potassium Assay in HEK-293 cells overexpressing KV7.2/3. On the set-up: Emax: dose or concentration left out as unconfirmed. Conditions: for KV7.2/3 opening activity (in words) / EC50 (required concentration to reach half‐maximal KV7.2/3 channel opening activity): HEK‐293 cells overexpressing KV7.2/3; for EC50 (required concentration to reach half‐maximal KV7.2/3 channel opening activity): mean ± SD, at least three determinations; for EC50 (required concentration to reach half‐maximal KV7.2/3 channel opening activity) / Efficacy: –[e] = inactive up to a concentration of 20 μM; for Efficacy: maximal fluorescence signal relative to flupirtine (100 %), HEK‐293; for Emax: HEK293E, read-out: Efficacy.

Data set [1] concerns HEP‐G2 human hepatoma cell line. The settings on record: human, 24 h.
In data set [2] the test system is TAMH mouse liver cell line. The settings on record: mouse, 24 h.
The nature of data set [3]: LogD7.4 estimation by HPLC-based method. The class given is physicochemical. The settings on record: for logD7.4 (single determination): calculated from retention time with one calibration function (A–F). The procedure:
The logarithm of the capacity factors of the reference substances was then plotted against the corresponding logP values taken from the mentioned guideline to obtain a calibration function. For non‐ionizable compounds like the reference substances used for calibration, logP values can be considered equivalent to the logD 7.4 values. To obtain a reference mixture, 2 mg of the reference substances were each dissolved in 1 mL of methanol, and 50 μL aliquots of each reference solution were subsequently combined. The reference mixture was measured before and after the substances to be tested, and the mean retention time from both measurements was used to calculate the calibration function. The calibration function was then used to determine the logD 7.4 values from the corresponding retention times for each substance to be tested. The compounds of interest were injected as a solution in methanol (2 mg/mL), and the retention time was determined as the mean value from two measurements.

Data set [4] can be described thus: Cyclic voltammetry, anodic peak potential (oxidizability). The settings on record: 0.1 M Tris‐HCl buffer pH 7.4, −0.5 to 1.0 V, sweep rate 0.1 V/s, –[b] = no oxidation observed in the specified potential range. It is filed as physicochemical.
Where [5] appears, read: pH 7.4, calculated from retention time with one calibration function (A–F), Table S7, read-out: logD7.4 (single determination).
Where [6] appears, read: pH 7.4, estimated by HPLC-based method, pH 7.4, read-out: LogD 7.4.

Entries after “also recorded” stand apart in the source; their conditions may differ. Like-named read-outs stand apart in the source and are kept apart here. Bounds are passed on as bounds.

Chain of KV7.2/3 channel (O43525 whole entry): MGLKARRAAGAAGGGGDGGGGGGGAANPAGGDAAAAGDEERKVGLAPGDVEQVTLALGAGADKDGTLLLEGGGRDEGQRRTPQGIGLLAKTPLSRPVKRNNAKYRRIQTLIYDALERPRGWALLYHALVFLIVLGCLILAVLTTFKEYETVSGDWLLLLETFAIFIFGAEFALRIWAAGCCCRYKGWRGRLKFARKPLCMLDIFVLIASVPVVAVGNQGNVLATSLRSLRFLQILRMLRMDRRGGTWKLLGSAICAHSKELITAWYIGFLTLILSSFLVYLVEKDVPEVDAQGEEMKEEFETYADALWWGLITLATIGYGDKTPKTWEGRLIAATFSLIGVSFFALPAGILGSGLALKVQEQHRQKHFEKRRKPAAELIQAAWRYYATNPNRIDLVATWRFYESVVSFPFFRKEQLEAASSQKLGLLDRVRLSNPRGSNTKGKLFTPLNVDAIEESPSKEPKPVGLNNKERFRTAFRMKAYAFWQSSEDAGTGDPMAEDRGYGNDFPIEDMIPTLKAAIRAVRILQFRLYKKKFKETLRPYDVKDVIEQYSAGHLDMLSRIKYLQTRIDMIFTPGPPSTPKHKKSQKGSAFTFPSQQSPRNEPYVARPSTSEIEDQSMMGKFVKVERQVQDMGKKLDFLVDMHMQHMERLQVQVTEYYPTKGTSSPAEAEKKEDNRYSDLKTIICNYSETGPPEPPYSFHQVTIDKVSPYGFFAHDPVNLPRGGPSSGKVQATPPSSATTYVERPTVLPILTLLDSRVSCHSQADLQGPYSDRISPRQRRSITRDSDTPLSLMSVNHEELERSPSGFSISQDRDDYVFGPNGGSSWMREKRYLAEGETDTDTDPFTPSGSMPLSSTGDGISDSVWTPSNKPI
Chain of KV7.2/3 channel (O43526 whole entry): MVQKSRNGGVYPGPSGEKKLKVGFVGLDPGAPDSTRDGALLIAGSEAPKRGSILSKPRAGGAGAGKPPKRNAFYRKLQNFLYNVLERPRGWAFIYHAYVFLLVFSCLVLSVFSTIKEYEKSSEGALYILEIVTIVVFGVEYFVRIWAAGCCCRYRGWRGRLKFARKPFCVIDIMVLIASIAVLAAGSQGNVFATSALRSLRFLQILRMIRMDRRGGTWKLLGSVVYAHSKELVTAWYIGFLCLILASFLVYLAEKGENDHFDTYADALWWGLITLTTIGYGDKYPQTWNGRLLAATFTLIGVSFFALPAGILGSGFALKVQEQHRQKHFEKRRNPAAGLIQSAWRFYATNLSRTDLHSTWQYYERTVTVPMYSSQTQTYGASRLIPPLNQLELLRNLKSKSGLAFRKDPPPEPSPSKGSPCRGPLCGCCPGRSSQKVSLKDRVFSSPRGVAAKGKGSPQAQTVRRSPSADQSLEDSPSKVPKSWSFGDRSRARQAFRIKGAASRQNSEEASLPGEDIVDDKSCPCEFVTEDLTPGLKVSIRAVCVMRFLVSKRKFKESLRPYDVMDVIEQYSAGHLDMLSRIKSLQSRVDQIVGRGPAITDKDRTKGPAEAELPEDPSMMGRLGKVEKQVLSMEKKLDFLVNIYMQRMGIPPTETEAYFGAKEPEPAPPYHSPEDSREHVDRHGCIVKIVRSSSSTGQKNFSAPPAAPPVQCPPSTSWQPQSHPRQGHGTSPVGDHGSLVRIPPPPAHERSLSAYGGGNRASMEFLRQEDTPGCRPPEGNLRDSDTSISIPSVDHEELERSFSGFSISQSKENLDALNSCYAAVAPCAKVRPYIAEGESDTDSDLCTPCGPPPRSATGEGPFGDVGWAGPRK

For the compound `Cc1cc(CNc2ccc(F)cc2F)ccc1NC(=O)c1cccnc1` [35 e, N ‐(4‐{[(2,4‐Difluorophenyl)amino]methyl}‐2‐methylphenyl)nicotinamide], at KV7.2/3 channel, the “KV7.2/3 opening activity (in words)” value was “inactive”, the “EC50 (required concentration to reach half‐maximal KV7.2/3 channel opening activity)” value is “–^[e]” and the Efficacy result is “–^[e]”. Further, in data set [1], the “LD25 (concentration to reduce cell viability by 25 %)” value came to 61 ± 7 µM and the “LD50 (concentration to reduce cell viability by 50 %)” value worked out at 107 ± 16 µM. Besides, in data set [2], the “LD25 (concentration to reduce cell viability by 25 %)” value worked out at 41 ± 11 µM and the “LD50 (concentration to reduce cell viability by 50 %)” value was above 125 µM. In data set [3] (Table S7), the “logD7.4 (single determination)” value is given as 2.952. Besides, the chromatographic logD in data set [3] (setting [5]) is 2.97. Also, the chromatographic logD in data set [3] (setting [6]) is 3. Moreover, in data set [4], the “Ep.a. (anodic peak potential)” value is “no anodic peak potential could be determined; also recorded: –^[b]”.
Usually EC50 stands for the midpoint of the concentration-response curve. For the compound `Cc1cc(CNc2ccc(F)cc2)ccc1NC(=O)CCn1cccn1` [compound 53, N ‐(4‐{[(4‐Fluorophenyl)amino]methyl}‐2‐methylphenyl)‐3‐(1H ‐pyrazol‐1‐yl)propanamide], on KV7.2/3 channel, the EC50 came to 2.36 ± 0.543 µM, the Emax was found to be 144 ± 42% and the “KV7.2/3 opening activity (in words)” value is recorded as “fair KV7.2/3 opening activity”. At KV7.2/3 channel (KV7.2/3 opening, ratio of EC50 values), the “fold decrease in potency compared to butanoylamino sidechain (35 a)” value was determined as 3.5 fold. Moreover, in data set [1], the “LD25 (concentration to reduce cell viability by 25 %)” value is above 63 µM and the “LD50 (concentration to reduce cell viability by 50 %)” value is above 63 µM. Moreover, in data set [2], the “LD25 (concentration to reduce cell viability by 25 %)” value was above 63 µM and the “LD50 (concentration to reduce cell viability by 50 %)” value was above 63 µM. Moreover, the “logD7.4 (single determination)” value in data set [3] (Table S7) is recorded as 2.924. Further, the chromatographic logD in data set [3] (setting [5]) was 2.93. The chromatographic logD in data set [3] (setting [6]) is 2.9. In data set [4], the “Ep.a. (anodic peak potential)” value was “no anodic peak potential could be determined; also recorded: –^[b]”.
On to `CCCC(=O)Nc1ccc(CNc2ccc(F)cc2)cc1F` [35 c, N ‐(2‐Fluoro‐4‐{[(4‐fluorophenyl)amino]methyl}phenyl)butyramide], for which, on KV7.2/3 channel, the concentration giving a half-maximal response (EC50) was found to be 1.51 ± 0.364 µM and the Emax came to 167 ± 16%. In data set [1], the “LD25 (concentration to reduce cell viability by 25 %)” value was above 63 µM and the “LD50 (concentration to reduce cell viability by 50 %)” value was above 63 µM. Besides, in data set [2], the “LD25 (concentration to reduce cell viability by 25 %)” value is above 63 µM and the “LD50 (concentration to reduce cell viability by 50 %)” value is above 63 µM. Also, in data set [3] (Table S7), the “logD7.4 (single determination)” value is recorded as 2.980. In data set [3] (setting [5]), the chromatographic logD is 2.96. Besides, the chromatographic logD in data set [3] (setting [6]) was 3. Besides, the “Ep.a. (anodic peak potential)” value in data set [4] turned out to be 643 mV.
Consider `CCOC(=O)Nc1ccc(C#Cc2ccccc2)nc1N` [compound 21, Ethyl [2‐amino‐6‐(phenylethynyl)pyridin‐3‐yl]carbamate], for which, on KV7.2/3 channel, the EC50 was above 20 µM, the “EC50 (required concentration to reach half‐maximal KV7.2/3 channel opening activity)” value was “–^[e]” and the Efficacy entry was “–^[e]”. Moreover, in data set [1], the “LD25 (concentration to reduce cell viability by 25 %)” value was above 125 µM and the “LD50 (concentration to reduce cell viability by 50 %)” value was above 125 µM. Moreover, in data set [2], the “LD25 (concentration to reduce cell viability by 25 %)” value worked out at 63 ± 12 µM and the “LD50 (concentration to reduce cell viability by 50 %)” value is above 125 µM. Further, in data set [3] (Table S7), the “logD7.4 (single determination)” value is 2.983. The chromatographic logD in data set [3] (setting [5]) was 2.99. In addition, in data set [3] (setting [6]), the chromatographic logD was 3. For the same compound, the “Ep.a. (anodic peak potential)” value in data set [4] turned out to be 553 mV.
Turning to `CCCC(=O)Nc1ccc(CNc2ccc(F)cc2)cc1C(F)(F)F.Cl` [35 d, N ‐(4‐{[(4‐Fluorophenyl)amino]methyl}‐2‐(trifluoromethyl)phenyl)butyramide hydrochloride], at KV7.2/3 channel, a half-maximal response (EC50) required 0.362 ± 0.093 µM and the Emax turned out to be 156 ± 14%. Moreover, in data set [1], the “LD25 (concentration to reduce cell viability by 25 %)” value came out at 75 ± 17 µM and the “LD50 (concentration to reduce cell viability by 50 %)” value is above 125 µM. Moreover, in data set [2], the “LD25 (concentration to reduce cell viability by 25 %)” value was above 125 µM and the “LD50 (concentration to reduce cell viability by 50 %)” value is above 125 µM. For the same compound, the “logD7.4 (single determination)” value in data set [3] (Table S7) was 2.991. Moreover, the chromatographic logD in data set [3] (setting [5]) is 3. In addition, in data set [3] (setting [6]), the chromatographic logD was 3. The “Ep.a. (anodic peak potential)” value in data set [4] is given as 663 mV.
